Measured values from patent US9144229B2, “Tissue specific expression of antibodies in chickens” (Synageva BioPharma Corp., priority 2002, dated 2015).

Test system: chicken embryonic stem cells
Assay: Titration kill curve of chicken ES cells under puromycin or neomycin selection
Type: cell-based
Parameters: key to Morphology of cES cells: ES cells are present.; ES cells are differentiated.; gone: no morphologically recognizable cells are present
Protocol: In a preferred embodiment, the concentration of puromycin required for selecting transfected cells is calculated as a titration kill curve. Titration kill curves for chicken embryonic stem cells are established by exposing cells in culture to puromycin concentrations varying from 0.0 to 1.0 μg/ml for 10 days (Table 7) and neomycin concentrations varying from 0.0 to 200 μg/ml (Table 8). The medium is changed every 2 days and fresh puromycin or neomycin is added. […] Puromycin concentrations of 0.3-1.0 μg/ml are used for selection of the transfected cultures. Neomycin concentrations over 40 μg/ml eliminated all cES cells within 7 days (Table 8).

COc1ccc(C[C@H](N)C(=O)N[C@H]2[C@@H](O)[C@H](n3cnc4c(N(C)C)ncnc43)O[C@@H]2CO)cc1 [puromycin]
presence of ES cells (0.3 μg/ml puromycin, 3 changes of medium over a six day period): absent from all wells | Morphology of cES cells (puromycin 0.1 μg/ml, day 1): ES | Morphology of cES cells (puromycin 0.1 μg/ml, day 2): ES | Morphology of cES cells (puromycin 0.1 μg/ml, day 3): ES | Morphology of cES cells (puromycin 0.1 μg/ml, day 4): ES | Morphology of cES cells (puromycin 0.1 μg/ml, day 5): ES | Morphology of cES cells (puromycin 0.1 μg/ml, day 6): ES | Morphology of cES cells (puromycin 0.1 μg/ml, day 7): ES | Morphology of cES cells (puromycin 0.1 μg/ml, day 8): ES | Morphology of cES cells (puromycin 0.1 μg/ml, day 9): ES | Morphology of cES cells (puromycin 0.1 μg/ml, day 10): ES | Morphology of cES cells (puromycin 0.2 μg/ml, day 1): ES | Morphology of cES cells (puromycin 0.2 μg/ml, day 2): ES | Morphology of cES cells (puromycin 0.2 μg/ml, day 3): ES | Morphology of cES cells (puromycin 0.2 μg/ml, day 4): ES | Morphology of cES cells (puromycin 0.2 μg/ml, day 5): ES | Morphology of cES cells (puromycin 0.2 μg/ml, day 6): ES | Morphology of cES cells (puromycin 0.2 μg/ml, day 7): ES | Morphology of cES cells (puromycin 0.2 μg/ml, day 8): ES | Morphology of cES cells (puromycin 0.2 μg/ml, day 9): ES | Morphology of cES cells (puromycin 0.2 μg/ml, day 10): ES | Morphology of cES cells (puromycin 0.25 μg/ml, day 1): ES | Morphology of cES cells (puromycin 0.25 μg/ml, day 2): ES | Morphology of cES cells (puromycin 0.25 μg/ml, day 3): ES | Morphology of cES cells (puromycin 0.25 μg/ml, day 4): ES | Morphology of cES cells (puromycin 0.25 μg/ml, day 5): ES | Morphology of cES cells (puromycin 0.25 μg/ml, day 6): diff | Morphology of cES cells (puromycin 0.25 μg/ml, day 7): diff | Morphology of cES cells (puromycin 0.25 μg/ml, day 8): diff/ | Morphology of cES cells (puromycin 0.25 μg/ml, day 9): diff/ | Morphology of cES cells (puromycin 0.25 μg/ml, day 10): diff/ | Morphology of cES cells (puromycin 0.3 μg/ml, day 1): ES | Morphology of cES cells (puromycin 0.3 μg/ml, day 2): ES | Morphology of cES cells (puromycin 0.3 μg/ml, day 3): diff | Morphology of cES cells (puromycin 0.3 μg/ml, day 4): diff/ | Morphology of cES cells (puromycin 0.3 μg/ml, day 5): diff/ | Morphology of cES cells (puromycin 0.3 μg/ml, day 6): gone | Morphology of cES cells (puromycin 0.3 μg/ml, day 7): gone | Morphology of cES cells (puromycin 0.3 μg/ml, day 8): gone | Morphology of cES cells (puromycin 0.3 μg/ml, day 9): gone | Morphology of cES cells (puromycin 0.3 μg/ml, day 10): gone | Morphology of cES cells (puromycin 0.4 μg/ml, day 1): ES | Morphology of cES cells (puromycin 0.4 μg/ml, day 2): diff | Morphology of cES cells (puromycin 0.4 μg/ml, day 3): gone | Morphology of cES cells (puromycin 0.4 μg/ml, day 4): gone | Morphology of cES cells (puromycin 0.4 μg/ml, day 5): gone | Morphology of cES cells (puromycin 0.4 μg/ml, day 6): gone | Morphology of cES cells (puromycin 0.4 μg/ml, day 7): gone | Morphology of cES cells (puromycin 0.4 μg/ml, day 8): gone | Morphology of cES cells (puromycin 0.4 μg/ml, day 9): gone | Morphology of cES cells (puromycin 0.4 μg/ml, day 10): gone | Morphology of cES cells (puromycin 0.5 μg/ml, day 1): diff | Morphology of cES cells (puromycin 0.5 μg/ml, day 2): gone | Morphology of cES cells (puromycin 0.5 μg/ml, day 3): Gone | Morphology of cES cells (puromycin 0.5 μg/ml, day 4): gone | Morphology of cES cells (puromycin 0.5 μg/ml, day 5): gone | Morphology of cES cells (puromycin 0.5 μg/ml, day 6): gone | Morphology of cES cells (puromycin 0.5 μg/ml, day 7): gone | Morphology of cES cells (puromycin 0.5 μg/ml, day 8): gone | Morphology of cES cells (puromycin 0.5 μg/ml, day 9): gone | Morphology of cES cells (puromycin 0.5 μg/ml, day 10): gone | Morphology of cES cells (puromycin 0.6 μg/ml, day 1): diff | Morphology of cES cells (puromycin 0.6 μg/ml, day 2): gone | Morphology of cES cells (puromycin 0.6 μg/ml, day 3): gone | Morphology of cES cells (puromycin 0.6 μg/ml, day 4): gone | Morphology of cES cells (puromycin 0.6 μg/ml, day 5): gone | Morphology of cES cells (puromycin 0.6 μg/ml, day 6): gone | Morphology of cES cells (puromycin 0.6 μg/ml, day 7): gone | Morphology of cES cells (puromycin 0.6 μg/ml, day 8): gone | Morphology of cES cells (puromycin 0.6 μg/ml, day 9): gone | Morphology of cES cells (puromycin 0.6 μg/ml, day 10): gone | Morphology of cES cells (puromycin 0.7 μg/ml, day 1): diff | Morphology of cES cells (puromycin 0.7 μg/ml, day 2): gone | Morphology of cES cells (puromycin 0.7 μg/ml, day 3): gone | Morphology of cES cells (puromycin 0.7 μg/ml, day 4): gone | Morphology of cES cells (puromycin 0.7 μg/ml, day 5): gone | Morphology of cES cells (puromycin 0.7 μg/ml, day 6): gone | Morphology of cES cells (puromycin 0.7 μg/ml, day 7): gone | Morphology of cES cells (puromycin 0.7 μg/ml, day 8): gone | Morphology of cES cells (puromycin 0.7 μg/ml, day 9): gone | Morphology of cES cells (puromycin 0.7 μg/ml, day 10): gone | Morphology of cES cells (puromycin 0.8 μg/ml, day 1): gone | Morphology of cES cells (puromycin 0.8 μg/ml, day 2): gone | Morphology of cES cells (puromycin 0.8 μg/ml, day 3): gone | Morphology of cES cells (puromycin 0.8 μg/ml, day 4): gone | Morphology of cES cells (puromycin 0.8 μg/ml, day 5): gone | Morphology of cES cells (puromycin 0.8 μg/ml, day 6): gone | Morphology of cES cells (puromycin 0.8 μg/ml, day 7): gone | Morphology of cES cells (puromycin 0.8 μg/ml, day 8): gone | Morphology of cES cells (puromycin 0.8 μg/ml, day 9): gone | Morphology of cES cells (puromycin 0.8 μg/ml, day 10): gone
